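A five-concentration, 48-hour dose response in 96-well plates underlies each endpoint, interpolated linearly between surrounding concentrations. GI50 is the concentration that inhibits growth by half.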 Activity calls are given as the source filed them. No stated cut-off is given here; in the data, active = GI50 up to about 1.1 µM and inactive = higher.
Experiments:
Assay in all cases: NCI tumour cell line growth inhibition, 48 h
[1] = system: EKVX
[2] = system: NCI-H460
[3] = system: UACC-257
[4] = system: SNB-75
[5] = system: HCT-116
[6] = system: SK-MEL-5
[7] = system: A498
[8] = system: MDA-N
[9] = system: KM12
[10] = system: OVCAR-8
[11] = system: PC-3
[12] = system: Hs-578T
[13] = system: U-251
[14] = system: SK-MEL-2
[15] = system: RXF 393
[16] = system: NCI-H226
[17] = system: MOLT-4
[18] = system: NCI-H522
[19] = system: HT-29
[20] = system: M14

Row | SMILES | GI50 [1] | GI50 [2] | GI50 [3] | GI50 [4] | GI50 [5] | GI50 [6] | GI50 [7] | GI50 [8] | GI50 [9] | GI50 [10] | GI50 [11] | GI50 [12] | GI50 [13] | GI50 [14] | GI50 [15] | GI50 [16] | GI50 [17] | GI50 [18] | GI50 [19] | GI50 [20]
1 | COc1cccc2c1OC1(C=C2)Oc2ccccc2C(=O)N1C (stereo unspecified) | 18.4 µM (inactive) | 32.4 µM (inactive) | 44.8 µM (inactive) | 16.3 µM (inactive) | 37.6 µM (inactive) | 68.1 µM (inactive) | 19.6 µM (inactive) | 15 µM (inactive) | 19.1 µM (inactive) | 4.68 µM (inactive) | 27.2 µM (inactive) | 21.5 µM (inactive) | 39.8 µM (inactive) | 54.5 µM (inactive) | 25.5 µM (inactive) | 20.9 µM (inactive) | 15.7 µM (inactive) | 19.1 µM (inactive) | 28.5 µM (inactive) | 40.8 µM (inactive)
2 | C=CCOC(=O)NC1C(OC(C)[C@@H](NC(=O)OCc2ccccc2)C(=O)OC(C)(C)C)OC(COC(C)=O)C(OC(C)=O)C1OC(C)=O (stereo partly specified) | > 100 µM (inactive) | > 100 µM (inactive) | > 100 µM (inactive) | 2.85 µM (inactive) | > 100 µM (inactive) | > 100 µM (inactive) | > 100 µM (inactive) | > 100 µM (inactive) | > 100 µM (inactive) | 65 µM (inactive) | 47 µM (inactive) | 72.4 µM (inactive) | > 100 µM (inactive) | – | > 100 µM (inactive) | > 100 µM (inactive) | 25.8 µM (inactive) | 63.8 µM (inactive) | > 100 µM (inactive) | 46.1 µM (inactive)
3 | O=C(Nn1c(-c2ccccc2)nc2ccccc2c1=O)c1ccc(Cl)cc1 | > 100 µM (inactive) | 59.6 µM (inactive) | > 100 µM (inactive) | 27.1 µM (inactive) | > 100 µM (inactive) | 23.4 µM (inactive) | 45.7 µM (inactive) | > 100 µM (inactive) | > 100 µM (inactive) | > 100 µM (inactive) | 66.4 µM (inactive) | 34 µM (inactive) | 84.3 µM (inactive) | – | > 100 µM (inactive) | > 100 µM (inactive) | 59.6 µM (inactive) | 50.6 µM (inactive) | > 100 µM (inactive) | > 100 µM (inactive)
4 | O=C1c2sccc2C(=O)c2c(CO)csc21 | 6.97 µM (inactive) | 2.25 µM (inactive) | 2.15 µM (inactive) | 5.24 µM (inactive) | 3.04 µM (inactive) | 0.83 µM (active) | 13.7 µM (inactive) | 1.72 µM (inactive) | 5.02 µM (inactive) | 3.66 µM (inactive) | 3.32 µM (inactive) | 4.17 µM (inactive) | 6.03 µM (inactive) | 2.85 µM (inactive) | 1.39 µM (inactive) | 4.82 µM (inactive) | 4.89 µM (inactive) | 1.92 µM (inactive) | 3.3 µM (inactive) | 2.21 µM (inactive)
5 | COC(=O)c1oc([N+](=O)[O-])c(Cl)c1Cl | 19.8 µM (inactive) | 17.2 µM (inactive) | 7.89 µM (inactive) | 7.78 µM (inactive) | 6.24 µM (inactive) | 9.08 µM (inactive) | 15.1 µM (inactive) | 7.98 µM (inactive) | 5.83 µM (inactive) | 10.6 µM (inactive) | 8.34 µM (inactive) | 11.4 µM (inactive) | 8.11 µM (inactive) | 12.2 µM (inactive) | 12.7 µM (inactive) | 21.3 µM (inactive) | 2.19 µM (inactive) | 1.7 µM (inactive) | 16.5 µM (inactive) | 7.28 µM (inactive)
6 | COc1ccc(/C=C/C(=O)c2cc(C(C)(C)C)c(O)c(C(C)(C)C)c2)cc1OC | 11.2 µM (inactive) | 5.52 µM (inactive) | 5.12 µM (inactive) | 3.01 µM (inactive) | 4.25 µM (inactive) | 6.75 µM (inactive) | 15 µM (inactive) | 2.94 µM (inactive) | 4.36 µM (inactive) | 10.5 µM (inactive) | 3.66 µM (inactive) | 17.8 µM (inactive) | 5.79 µM (inactive) | 3.48 µM (inactive) | 2.86 µM (inactive) | 10.7 µM (inactive) | 2.77 µM (inactive) | 5.61 µM (inactive) | 4.18 µM (inactive) | 25.3 µM (inactive)
7 | COc1ccc(/C=C/C(=O)/C=C/c2ccc(OC)cc2)cc1 | 41.7 µM (inactive) | > 100 µM (inactive) | 20 µM (inactive) | 38.9 µM (inactive) | 11.2 µM (inactive) | 31.3 µM (inactive) | > 100 µM (inactive) | 19 µM (inactive) | 24 µM (inactive) | 17.6 µM (inactive) | 69.3 µM (inactive) | 47.2 µM (inactive) | 23.7 µM (inactive) | 33.3 µM (inactive) | 18.3 µM (inactive) | 22.4 µM (inactive) | 51.1 µM (inactive) | 42.8 µM (inactive) | 29.3 µM (inactive) | 21.1 µM (inactive)
8 | O=C(N/N=C\c1c(O)ccc2ccccc12)c1ccncc1 | – | – | 1.22 µM (inactive) | 2.75 µM (inactive) | 0.191 µM (active) | 0.341 µM (active) | 2.21 µM (inactive) | 1.33 µM (inactive) | 2.7 µM (inactive) | 0.574 µM (active) | 0.752 µM (active) | > 15.3 µM (inactive) | 0.29 µM (active) | 0.257 µM (active) | 0.383 µM (active) | 0.628 µM (active) | 0.0313 µM (active) | 0.638 µM (active) | 1.7 µM (inactive) | 0.474 µM (active)
9 | O=c1[nH]c(=O)n(C2CC(O)C(CO)O2)c2nc3ccc4ccccc4c3nc12 (stereo unspecified) | 72.4 µM (inactive) | 21.3 µM (inactive) | > 100 µM (inactive) | 52.8 µM (inactive) | > 100 µM (inactive) | 54.1 µM (inactive) | > 100 µM (inactive) | > 100 µM (inactive) | > 100 µM (inactive) | 79.1 µM (inactive) | 73.8 µM (inactive) | 55.5 µM (inactive) | 33.7 µM (inactive) | 95.5 µM (inactive) | 56.6 µM (inactive) | 17.8 µM (inactive) | 24.5 µM (inactive) | 45.6 µM (inactive) | – | > 100 µM (inactive)
10 | COC(=O)C(=O)C(C(=O)C(=O)Nc1nnc(S)[nH]1)c1nc2ccc([N+](=O)[O-])cc2nc1O (stereo unspecified) | > 100 µM (inactive) | > 100 µM (inactive) | > 100 µM (inactive) | > 100 µM (inactive) | > 100 µM (inactive) | > 100 µM (inactive) | > 100 µM (inactive) | > 100 µM (inactive) | > 100 µM (inactive) | > 100 µM (inactive) | > 100 µM (inactive) | > 100 µM (inactive) | > 100 µM (inactive) | > 100 µM (inactive) | > 100 µM (inactive) | > 100 µM (inactive) | – | > 100 µM (inactive) | > 100 µM (inactive) | > 100 µM (inactive)
11 | OC1C#CCSCC#C/C=C\1 (stereo unspecified) | > 100 µM (inactive) | 13.7 µM (inactive) | 30.9 µM (inactive) | > 100 µM (inactive) | 62.1 µM (inactive) | – | 76.6 µM (inactive) | 81.3 µM (inactive) | – | 3.72 µM (inactive) | > 100 µM (inactive) | 34 µM (inactive) | > 100 µM (inactive) | > 100 µM (inactive) | 18 µM (inactive) | > 100 µM (inactive) | – | 17.8 µM (inactive) | 65.9 µM (inactive) | > 100 µM (inactive)
12 | CCCN1C(=O)CN(S(=O)(=O)c2ccc(Cl)cc2)C1=O | > 100 µM (inactive) | > 100 µM (inactive) | > 100 µM (inactive) | > 100 µM (inactive) | > 100 µM (inactive) | > 100 µM (inactive) | > 100 µM (inactive) | > 100 µM (inactive) | > 100 µM (inactive) | – | > 100 µM (inactive) | > 100 µM (inactive) | > 100 µM (inactive) | > 100 µM (inactive) | > 100 µM (inactive) | > 100 µM (inactive) | – | > 100 µM (inactive) | > 100 µM (inactive) | > 100 µM (inactive)
13 | COc1c(O)c2c(c3cc(C(=O)N4CCc5c4c(O)c(OC)c4[nH]c(C(=O)N6CC7CC78C6=CC(=O)c6[nH]cc(C)c68)cc54)[nH]c13)CCN2C(N)=O (stereo unspecified) [CC-1065] | 0.867 µM (active) | 0.000175 µM (active) | 0.00352 µM (active) | 0.00356 µM (active) | 0.000207 µM (active) | 0.0126 µM (active) | 0.0028 µM (active) | 0.237 µM (active) | 0.003 µM (active) | 0.000317 µM (active) | 0.164 µM (active) | 0.294 µM (active) | 0.000191 µM (active) | – | 0.188 µM (active) | 0.000212 µM (active) | 0.0164 µM (active) | 0.0205 µM (active) | – | 0.0016 µM (active)
14 | O=C(O)c1nc2cc(C(F)(F)F)ccc2nc1Nc1ccc(F)cc1 | 21.9 µM (inactive) | – | 20.6 µM (inactive) | 18.5 µM (inactive) | 15.4 µM (inactive) | 16.2 µM (inactive) | 14.3 µM (inactive) | 22.5 µM (inactive) | 6.64 µM (inactive) | 19.4 µM (inactive) | 10.8 µM (inactive) | 19.6 µM (inactive) | 18.3 µM (inactive) | 7.16 µM (inactive) | 16.3 µM (inactive) | 27 µM (inactive) | 13.6 µM (inactive) | 7.5 µM (inactive) | 23 µM (inactive) | 27 µM (inactive)

Reference: ChEMBL document CHEMBL1201862, “PubChem BioAssay data set” (2004)
